Data from patent publication US20050203065A1, “Method of treating ischemia reperfusion injury using adenosine receptor antagonists” (priority 2002, published 2005).
Read-outs that look alike come from different tables or passages of the source.

Experiments:
[1] = target: T1, human A2B adenosine receptors (Homo sapiens, UniProt P29275); assay: Radioligand competitive binding, ADENOSINE A2B (HEK293), [3H]-DPCPX (Table 8); parameters: purchased Receptor Biology; host or cells: HEK 293; conditions: [3H]-DPCPX 30-40 nM
T1 sequence (P29275 1-332): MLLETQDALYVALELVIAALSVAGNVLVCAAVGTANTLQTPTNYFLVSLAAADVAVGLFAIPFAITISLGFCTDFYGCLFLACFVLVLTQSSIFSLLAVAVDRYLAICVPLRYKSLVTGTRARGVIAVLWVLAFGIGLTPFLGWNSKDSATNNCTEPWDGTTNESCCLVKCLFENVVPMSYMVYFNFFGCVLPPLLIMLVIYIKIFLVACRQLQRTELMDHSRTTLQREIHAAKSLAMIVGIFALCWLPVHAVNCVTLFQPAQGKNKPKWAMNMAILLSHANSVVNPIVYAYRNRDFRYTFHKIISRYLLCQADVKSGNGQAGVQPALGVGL
Description: Membranes (50 μg membrane protein), radioligands, and varying concentrations of competing ligands were incubated in triplicate in 0.1 mL buffer HE plus 2 units/mL adehosine, deaminase for 2 hours at 21° C. The radioligand used for competitive binding assays for human A2B adenosine receptors was [^3H]-8-cyclopentyl-1,3-dipropyxanthine ([^3H]-DPCPX, 30-40 nM) (NEN, Boston, Mass.). Nonspecific binding was measured in the presence of 10 μM 5′N-ethylcarboxamidoadenosine (NECA; from RBI-Sigma, Natick, Mass.). Binding assays were terminated by filtration over Whatman GF/C glass fiber filters using a BRANDEL cell harvester (Gaithersburg, Md.). The filters were rinsed three times with 3 to 4 mL ice-cold 10 mM Tris-HCl, pH 7.4 and 5 mM magnesium chloride (MgCl2) at 4° C. and were counted in a Wallac β-counter (Perkin Elmer, Boston, Mass.).
Competitive binding data were fit to a single site binding model and plotted using Prizm GraphPad. The Cheng-Prusoff equation KI=IC50/(1+[I]/KD) was used to calculate KI values from IC50 values, where KI is the affinity constant for the competing ligand, [I] is the concentration of the free radioligand, and KD is the affinity constant for the radioligand (Cheng and Prusoff 1973).

[2] = tested on: open-chest, barbital-anesthetized dogs; assay: Protocol II (preconditioning): four 5-minute occlusion/reperfusion cycles before 60-minute occlusion and 3 hours reperfusion in dogs; assay type: in vivo, dog; conditions: for Effect on the protective effects of ischemic preconditioning: 1 mg/kg i.v. bolus + 10 μg/kg/min
Description: Preconditioning was elicited by four 5-minute occlusion/5-minute reperfusion cycles produced 10 minutes before the 60-minute occlusion.

[3] = target: T2, recombinant canine A3 adenosine receptors (Canis lupus familiaris, UniProt Q28309); assay: Radioligand competition binding, canine A3 receptor (R-PIA), transfected HEK 293 membranes; conditions: mean ± SEM, n = 3
T2 construct: expressed in transfected cells
T2 sequence (Q28309 1-314): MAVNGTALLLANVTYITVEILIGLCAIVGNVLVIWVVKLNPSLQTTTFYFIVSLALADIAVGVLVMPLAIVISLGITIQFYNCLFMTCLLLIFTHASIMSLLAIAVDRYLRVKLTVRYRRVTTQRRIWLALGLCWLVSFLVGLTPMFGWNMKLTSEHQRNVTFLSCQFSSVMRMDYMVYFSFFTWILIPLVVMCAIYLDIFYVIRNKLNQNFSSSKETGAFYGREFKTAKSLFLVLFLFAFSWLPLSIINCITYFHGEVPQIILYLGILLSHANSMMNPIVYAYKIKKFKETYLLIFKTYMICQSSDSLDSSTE
Description: (§1) Membranes (40-70 μg membrane protein), radioligands, and varying concentrations of competing ligands were incubated in triplicate in 0.1 ml buffer HE plus 2 units/mL adenosine deaminase for 2.5 hours at 21° C. The radioligands used for competitive binding assays were: [^3H]-8-cyclopentyl-1,3-dipropyxanthine ([^3H]-DPCPX) (NEN, Boston, Mass.) for A1 and A2b adenosine receptors, [^3H]-4-(2-[7-amino-2-(furyl)(1,2,4)triazole(2,3-a)(1,3,5)triazin-5-ylaminoethyly)phenol ([^3H] ZM241385) for A2a adenosine receptors (Tocris, Bristol, UK), and [^125Iodine]-labeled N6-(4-aminobenzyl)-9-(5-(methylcarbonyl)-β-D-ribofuranosyl) adenine ([^125I]-AB-MECA) or [^3H]-R-N^6-phenylisopropyladenosine (H^3R]-R-PIA) for A3 adenosine receptors (both from NEN, Boston, Mass.). Nonspecific binding was measured in the presence of 10 μM 5′N ethylcarboxamidoadenosine (NECA, from RBI-Sigma, Natick, Mass.) for A1 and A2b receptors, or 10 μM xanthine amino congener (XAC, from RBI-Sigma, Natick, Mass.) for A2a receptors. Binding assays were terminated by filtration over Whatman GF/C glass fiber filters using a BRANDEL cell harvester (Gaithersburg, Md.). The-filters were rinsed three times with 3-4 mL ice-cold 10 mM Tris-HCl, pH 7.4 and 5 mM magnesium chloride (MgCl2) at 4° C., and were counted in a Wallac β-counter (Perkin Elmer, Boston, Mass.).

[4] = target: T3, recombinant human A3 adenosine receptors (Homo sapiens, UniProt P0DMS8); assay: Radioligand binding, human A3 receptor ([125I]-AB-MECA), incl. one-point binding at 10 μM; conditions: read-out: Percent (%) Inhibition at 10 μM Antagonist, A3
T3 construct: expressed in transfected cells; host or cells: HEK 293
T3 sequence (P0DMS8 1-318): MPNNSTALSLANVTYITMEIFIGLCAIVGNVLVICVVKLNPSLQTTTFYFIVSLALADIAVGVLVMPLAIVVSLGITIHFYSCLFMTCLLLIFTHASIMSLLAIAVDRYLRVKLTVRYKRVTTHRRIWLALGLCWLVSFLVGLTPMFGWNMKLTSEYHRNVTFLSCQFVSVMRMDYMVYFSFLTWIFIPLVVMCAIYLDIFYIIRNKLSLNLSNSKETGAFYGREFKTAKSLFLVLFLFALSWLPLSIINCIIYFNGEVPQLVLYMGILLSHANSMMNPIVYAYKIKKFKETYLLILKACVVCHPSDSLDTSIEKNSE

[5] = target: T4, recombinant canine A2a adenosine receptors (Canis lupus familiaris, UniProt P11617); assay: Radioligand competition binding, canine A2a receptor (3H-ZM 241385), transfected HEK 293 membranes
T4 construct: expressed in transfected cells
Description: Membranes (40-70 μg membrane protein), radioligands, and varying concentrations of competing ligands were incubated in triplicate in 0.1 ml buffer HE plus 2 units/mL adenosine deaminase for 2.5 hours at 21° C. […] Nonspecific binding was measured in the presence of 10 μM 5′N ethylcarboxamidoadenosine (NECA, from RBI-Sigma, Natick, Mass.) for A1 and A2b receptors, or 10 μM xanthine amino congener (XAC, from RBI-Sigma, Natick, Mass.) for A2a receptors. Binding assays were terminated by filtration over Whatman GF/C glass fiber filters using a BRANDEL cell harvester (Gaithersburg, Md.).

[6] = target: T5, recombinant canine A1 adenosine receptors (Canis lupus familiaris, UniProt P11616); assay: Radioligand competition binding, canine A1 receptor (3H-CPX), transfected HEK 293 membranes
T5 construct: expressed in transfected cells
T5 sequence (P11616 1-326): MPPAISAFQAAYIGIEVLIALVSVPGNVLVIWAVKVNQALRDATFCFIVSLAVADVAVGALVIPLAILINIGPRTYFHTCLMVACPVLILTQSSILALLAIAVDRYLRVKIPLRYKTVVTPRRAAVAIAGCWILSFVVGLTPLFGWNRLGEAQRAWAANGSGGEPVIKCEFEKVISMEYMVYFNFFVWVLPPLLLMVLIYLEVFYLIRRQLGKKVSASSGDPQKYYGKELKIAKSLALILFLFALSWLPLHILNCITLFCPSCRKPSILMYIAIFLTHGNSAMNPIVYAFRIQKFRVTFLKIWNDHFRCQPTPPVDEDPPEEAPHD
Description: as §1, with “Md.).” for “Md.). The-filters were rinsed three times with 3-4 mL ice-cold 10 mM Tris-HCl, pH 7.4 and 5 mM magnesium chloride (MgCl2) at 4° C., and were counted in a Wallac β-counter (Perkin Elmer, Boston, Mass.).”

[7] = tested on: open-chest, barbital-anesthetized dogs; assay: Protocol I (pretreatment): 60 minutes of coronary artery occlusion and 3 hours of reperfusion in dogs
Description: (§2) The studies were performed in open-chest, barbital-anesthetized dogs instrumented to measure heart rate, blood pressure, left ventricular pressure, and regional myocardial blood flow (radioactive microspheres). A mechanical occluder was placed around a proximal portion of the left anterior descending coronary artery to produce ischemia and reperfusion. At the end of the experiments, infarct size was determined-by histochemical staining (patent blue dye and triphenyltetrazolium) and expressed as a percentage of the region at risk or as a percentage of the entire left ventricle.
In the pretreatment protocol (see FIG. 1, protocol I), the dogs were subjected to 60 minutes of coronary artery occlusion and 3 hours or reperfusion after which the hearts were removed and infarct size was assessed. […] All of the antagonists were administered at a dose of 1 mg/kg as an i.v. bolus followed by and infusion of 10 μg/kg/min continued until immediately before reperfusion (70 minutes total).

[8] = tested on: open-chest, barbital-anesthetized dogs; assay: Protocol III (reperfusion): 60 minutes occlusion and 3 hours reperfusion, drug from 10 minutes before release of occlusion, dogs; assay type: in vivo, dog; conditions: for Infarct size expressed as a percentage of the risk region, in words: administration during the early phase of reperfusion
Description: as §2
In the reperfusion protocol (see FIG. 3, protocol III), the dogs were subjected to 60 minutes of coronary artery occlusion followed by three hours of reperfusion. […] The antagonists were administered at a dose of 1 mg/kg i.v. bolus followed by an infusion of 10 μg/kg/min for one hour.

T4 sequence (P11617 whole entry): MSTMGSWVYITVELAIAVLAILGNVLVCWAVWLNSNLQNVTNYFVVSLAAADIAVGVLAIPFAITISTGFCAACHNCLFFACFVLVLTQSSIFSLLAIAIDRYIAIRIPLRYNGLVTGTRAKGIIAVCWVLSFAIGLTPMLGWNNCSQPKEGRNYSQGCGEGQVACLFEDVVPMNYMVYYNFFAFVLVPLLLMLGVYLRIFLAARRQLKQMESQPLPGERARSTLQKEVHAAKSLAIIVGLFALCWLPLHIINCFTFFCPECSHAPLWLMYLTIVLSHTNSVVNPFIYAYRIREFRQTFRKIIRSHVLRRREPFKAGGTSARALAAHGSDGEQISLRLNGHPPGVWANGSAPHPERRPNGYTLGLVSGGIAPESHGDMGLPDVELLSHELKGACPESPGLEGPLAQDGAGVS

Compound: CCCn1c(=O)c2nc(C34CCC(C5=NOC(C(=O)O)C5)(CC3)CC4)[nH]c2n(CCC)c1=O (centres unmarked) [Compound 16]
- Ki [1]: 131 nM

Compound: CCCn1c(=O)c2[nH]c(C34CCCC(O)(CC3)CC4)nc2n(CCC)c1=O [Compound 6]
- Ki [1]: 47 nM

Compound: CCCn1c(=O)c2nc(C34CCC(CCC(=O)Nc5nnn[nH]5)(CC3)CC4)[nH]c2n(CCC)c1=O [Compound 10]
- Ki [1]: 85.6 nM

Compound: CCCn1c(=O)c2[nH]c(C34CCC(CN(C)C)(CC3)CC4)nc2n(CCN)c1=O [Compound 4]
- Ki [1]: 39 nM

Compound: CCCn1c(=O)c2[nH]c(-c3ccc(C#N)cc3)c(O)c2n(CCC)c1=O [Compound 3]
- Ki [1]: 27 nM

Compound: CCCn1c(=O)c2[nH]c(C34CCC(/C=C/C(=O)O)(CC3)OC4)nc2n(CCC)c1=O [Compound 13]
- Ki [1]: 117 nM

Compound: CCCn1c(=O)c2[nH]c(C34CCC(/C=C/C(=O)O)(CC3)CC4)nc2n(CCC)c1=O [Compound 12]
- Ki [1]: 100 nM

Compound: CCCn1c(=O)c2nc(C34CCC(CCCC(=O)O)(CC3)CC4)[nH]c2n(CCC)c1=O [Compound 15]
- Ki [1]: 127 nM

Compound: CCCn1c(=O)c2[nH]c(C34CCC(O)C(CC3)C4)nc2n(CCC)c1=O (centres unmarked) [Compound 9]
- Ki [1]: 76.9 nM

Compound: CCCn1c(=O)c2[nH]c(C34CCC(OCCC(=O)O)(CC3)C4)nc2n(CCC)c1=O [Compound 14]
- Ki [1]: 125 nM

Compound: CCCn1c(=O)c2[nH]c(C3CC4CCC(C3)C4NCC(=O)OCC)nc2n(CCC)c1=O (centres unmarked) [Compound 11]
- Ki [1]: 93 nM

Compound: CCCn1c(=O)c2[nH]c(C3C4CC5C(C4CCCN(C)C)C53)nc2n(CCC)c1=O (centres unmarked) [Compound 1]
- Ki [1]: 14.6 nM

Compound: CCCn1c(=O)c2[nH]c(C34CCC(O[C@@H](C)C(=O)O)(CC3)CC4)nc2n(CCC)c1=O [Compound 5]
- Ki [1]: 45.1 nM

Compound: CCCn1c(=O)c2[nH]c(C34CCC(CCc5nnn[nH]5)(CC3)CC4)nc2n(CCC)c1=O [Compound 17]
- Ki [1]: 160 nM

Compound: CCCn1c(=O)c2[nH]c([C@H]3C[C@@H]4C[C@H]3[C@H]3O[C@@H]43)nc2n(CCC)c1=O [BG 9719, 8-(2S-5,6-exo-epoxy-endo-norborn-2-yl)-1,3-dipropyl-3,7-dihydro-purine-2,6-dione]
- Effect on the protective effects of ischemic preconditioning ([2]; Protocol II): did not block
- Ki [3]: 19100 nM
- inhibition at 10 µM [4]: 40.6%
- Ki ([5]; canine, mean ± SEM, n = 3, 3H-ZM 241385, read-out: Ki, A2a): 2820 nM
- Ki ([6]; canine, mean ± SEM, n = 3, 3H-CPX, read-out: Ki, A1): 35.8 ± 4 nM
- Relationship between infarct size and transmural collateral blood flow compared to control group [7]: similar
- Infarct size expressed as a percentage of the risk region, in words [8]: no protective effect

Compound: CCCn1c(=O)c2[nH]c(C34CCC(CN)(CC3)CC4)nc2n(CCC)c1=O [Compound 8]
- Ki [1]: 55.2 nM

Compound: CCCn1c(=O)c2[nH]c(C34CCC(CCC(=O)O)(CC3)CC4)nc2n(CCC)c1=O [Compound 7]
- Ki [1]: 51.4 nM

Compound: CCCn1c(=O)c2[nH]c(C34CCCC(OCC(=O)O)(CC3)CC4)nc2n(CCC)c1=O [Compound 18]
- Ki [1]: 168 nM

Compound: CCCn1c(=O)c2[nH]c(C34CCC(OCC(=O)O)(CC3)C4)nc2n(CCC)c1=O [Compound 2]
- Ki [1]: 15.2 nM

Compound: CCCn1c(=O)c2[nH]c(C3CCCC3)nc2n(CCC)c1=O [CPX, 8-Cyclopentyl-1,3-dipropyl-3,7-dihydro-purine-2,6-dione]
- Addition to the protective effect of ischemic preconditioning ([2]; Protocol II): added to the protective effect
- Relationship between infarct size and collateral blood flow compared to preconditioned control ([2]; Protocol II (preconditioning)): shifted downward further
- Effect on the protective effects of ischemic preconditioning ([2]; Protocol II): did not block
- Ki [3]: 1960 nM
- Ki [5]: 162 ± 22 nM
- Ki [6]: 18.1 ± 4.4 nM
- Relationship between infarct size and transmural collateral blood flow compared to control group [7]: shifted downward
- Infarct size (percentage of risk region or of left ventricle) compared with control, in words ([7]; 1 mg/kg i.v. bolus + 10 μg/kg/min from 10 minutes before occlusion): significantly smaller
- Infarct size reduction ([7]; 1 mg/kg i.v. bolus + 10 μg/kg/min from 10 minutes before occlusion, vs control): 51%
- Infarct size expressed as a percentage of the entire left ventricle, in words [8]: a significant reduction in infarct size was not observed
- Relationship between infarct size and collateral blood flow compared to control group [8]: shifted downward
- Reduction in infarct size (percentage of the risk region) ([8]; 1 mg/kg i.v. bolus + 10 μg/kg/min for one hour from 10 minutes before release of occlusion): 42%
- Infarct size expressed as a percentage of the risk region, in words [8]: reduced significantly
